# What was measured:
# Type in all cases: ADME
# [1] = Minimal lethal dose in mice causing gradual progressive onset of severe scratching of face and body, spasms, paralysis (30 min after injection), severe eye damage, and death occurring within 24 h; range: 0.38-0.77; details: mouse, in vivo
# [2] = Minimal lethal dose in mice causing gradual progressive onset of severe scratching of face and body, spasms, paralysis, severe eye damage, and death; range: 1.5-3.1; details: mouse, in vivo
# [3] = Minimal lethal dose in mice showing no adverse symptoms seen; details: mouse, in vivo
# [4] = Minimal lethal dose in mice causing no scratching or eye damage, but frenetic jumping, severe spasms, and ultimately paralysis; if death did not occur within 30 min, total recovery was noted; range: 1.5-3.1; details: mouse, in vivo, 0.5 h
# [5] = Minimal lethal dose in mice causing gradual progressive onset of severe scratching of face and body, spasms, paralysis, severe eye damage, and death; range: 0.2-0.4; details: mouse, in vivo
structure (smiles),measurement,setting,value
CO[C@@H]1[C@H](O[C@@H]2[C@@H](OC)[C@H](O[C@H]3C[C@H]4CC(=O)[C@@]5(O)O[C@H](C[C@H]5C)C(C)(C)[C@@H](/C=C/C#C/C=C/C(C)C)OC(=O)C[C@H](O4)[C@@H]3C)OC[C@H]2OC)O[C@@H](C)[C@@H](O)[C@@H]1OC,MLD,[1],0.38 mg/kg
CO[C@@H]1[C@H](O[C@@H]2[C@@H](OC)[C@H](O[C@H]3C[C@H]4CC(=O)[C@@]5(O)O[C@H](C[C@H]5C)C(C)(C)[C@@H](/C=C/C=C/C(C)C)OC(=O)C[C@H](O4)[C@@H]3C)OC[C@H]2OC)O[C@@H](C)[C@@H](O)[C@@H]1OC,MLD,[2],3.1 mg/kg
COC1C(O)C(C)OC(O[C@H]2C(OC)COC(O[C@H]3C[C@H]4CC(=O)[C@@]5(O)O[C@H](C[C@H]5C)C(C)(C)[C@@H](/C=C/c5ccccc5)OC(=O)C[C@H](O4)[C@@H]3C)[C@@H]2OC)[C@H]1OC (stereo partly drawn),MLD,[3],> 13 mg/kg
CC(C)/C=C/C=C/C=C/[C@H]1OC(=O)C[C@@H]2O[C@H](CC(=O)[C@@]3(O)O[C@H](C[C@H]3C)C1(C)C)C[C@H](O)[C@H]2C,MLD,[4],1.5 mg/kg
CO[C@@H]1[C@H](O[C@@H]2[C@@H](OC)[C@H](O[C@H]3C[C@H]4CC(=O)[C@@]5(O)O[C@H](C[C@H]5C)C(C)(C)[C@@H](/C=C/C=C/C5CCCCC5)OC(=O)C[C@H](O4)[C@@H]3C)OC[C@H]2OC)O[C@@H](C)[C@@H](O)[C@@H]1OC,MLD,[3],> 13 mg/kg
C[C@H]1[C@@H]2CC(=O)O[C@H](/C=C/I)C(C)(C)[C@H]3C[C@@H](C)[C@](O)(O3)C(=O)C[C@H](C[C@@H]1O)O2,MLD,[3],> 13 mg/kg
CO[C@@H]1[C@H](O[C@@H]2[C@@H](OC)[C@H](O[C@H]3C[C@H]4CC(=O)[C@@]5(O)O[C@H](C[C@H]5C)C(C)(C)[C@@H](/C=C/C=C/C=C/C(C)C)OC(=O)C[C@H](O4)[C@@H]3C)OC[C@H]2OC)O[C@@H](C)[C@@H](O)[C@@H]1OC [polycavemoside A],MLD,[5],0.2 mg/kg
CO[C@@H]1[C@H](OC)[C@H](O[C@@H]2[C@@H](OC)[C@H](O[C@H]3C[C@H]4CC(=O)[C@@]5(O)O[C@H](C[C@H]5C)C(C)(C)[C@@H](/C=C/C=C/C(C)C)OC(=O)C[C@H](O4)[C@@H]3C)OC[C@H]2OC(C)=O)O[C@@H](C)[C@H]1OC [polycavernoside B],MLD,[5],0.2 mg/kg

# — ChEMBL document CHEMBL1131805, “Synthesis and biological evaluation of analogs of the marine toxin polycavernoside A” (Bioorg Med Chem Lett, 1999)
